Measurements reported in ChEMBL document CHEMBL4665754, “Discovery of a coumarin derivative as Nrf2 activator mitigating oxidative stress and fibrosis in mesangial cells under high glucose” (Bioorg Med Chem Lett, 2020).
Active and inactive are the calls of the source. The calls are words filed in the database; no cut-off is given here.

Tests used:
[1] = target: T1, Keap1/Nrf2 (Homo sapiens) (UniProt Q16236+Q14145); assay: Disruption of interaction between Nrf2/Keap1 (unknown origin) in mesangial cells assessed as reduction in high glucose-induced collagen IV secretion at 10 uM by ELISA; type: cell-based; details: Mesangial cell
T1 sequence (Q14145 whole entry, looked up, one chain of several): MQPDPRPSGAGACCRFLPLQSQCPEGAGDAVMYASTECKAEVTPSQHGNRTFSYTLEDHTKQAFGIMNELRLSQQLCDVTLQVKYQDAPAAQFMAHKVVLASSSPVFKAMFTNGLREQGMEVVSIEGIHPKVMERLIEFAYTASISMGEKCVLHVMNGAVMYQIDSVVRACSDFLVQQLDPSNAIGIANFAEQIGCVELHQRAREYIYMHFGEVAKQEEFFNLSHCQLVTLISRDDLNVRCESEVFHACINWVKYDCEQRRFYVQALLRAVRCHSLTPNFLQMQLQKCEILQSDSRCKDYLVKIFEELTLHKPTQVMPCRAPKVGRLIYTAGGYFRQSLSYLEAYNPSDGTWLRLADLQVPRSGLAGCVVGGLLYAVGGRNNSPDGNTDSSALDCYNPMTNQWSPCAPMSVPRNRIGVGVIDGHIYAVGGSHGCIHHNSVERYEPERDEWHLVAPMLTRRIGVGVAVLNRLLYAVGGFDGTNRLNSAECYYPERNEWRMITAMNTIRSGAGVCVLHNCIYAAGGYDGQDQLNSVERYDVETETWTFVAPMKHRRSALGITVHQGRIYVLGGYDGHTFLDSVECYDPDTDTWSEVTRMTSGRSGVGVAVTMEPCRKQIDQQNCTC

Mesangial cell [2] = assay: Inhibition of glucose-induced cell proliferation in Mesangial cell (unknown origin) at 10 uM by CCK8 assay; type: functional, tissue-based
[3] = target: T1, Keap1/Nrf2 (Homo sapiens); assay: Disruption of interaction between Nrf2/Keap1 (unknown origin) in mesangial cells assessed as reduction in high glucose-induced intracellular MDA level at 10 uM; type: cell-based; details: Mesangial cell
[4] = Cytotoxicity against Mesangial cell (unknown origin) at 0.01 to 100 uM by CCK8 assay; type: tissue-based; details: dose 0.01-100 µM
[5] = target: T2, Nuclear factor erythroid 2-related factor 2 (Homo sapiens) (UniProt Q16236); assay: Activation of Nrf2 (unknown origin) in mesangial cell assessed as increase in transcription ability of Nrf2 binding to ARE by measuring increase luciferase activity at 5 to 10 uM in presence of high glucose by luciferase reporter gene assay; type: tissue-based; details: dose microM 5-10
T2 sequence (whole entry): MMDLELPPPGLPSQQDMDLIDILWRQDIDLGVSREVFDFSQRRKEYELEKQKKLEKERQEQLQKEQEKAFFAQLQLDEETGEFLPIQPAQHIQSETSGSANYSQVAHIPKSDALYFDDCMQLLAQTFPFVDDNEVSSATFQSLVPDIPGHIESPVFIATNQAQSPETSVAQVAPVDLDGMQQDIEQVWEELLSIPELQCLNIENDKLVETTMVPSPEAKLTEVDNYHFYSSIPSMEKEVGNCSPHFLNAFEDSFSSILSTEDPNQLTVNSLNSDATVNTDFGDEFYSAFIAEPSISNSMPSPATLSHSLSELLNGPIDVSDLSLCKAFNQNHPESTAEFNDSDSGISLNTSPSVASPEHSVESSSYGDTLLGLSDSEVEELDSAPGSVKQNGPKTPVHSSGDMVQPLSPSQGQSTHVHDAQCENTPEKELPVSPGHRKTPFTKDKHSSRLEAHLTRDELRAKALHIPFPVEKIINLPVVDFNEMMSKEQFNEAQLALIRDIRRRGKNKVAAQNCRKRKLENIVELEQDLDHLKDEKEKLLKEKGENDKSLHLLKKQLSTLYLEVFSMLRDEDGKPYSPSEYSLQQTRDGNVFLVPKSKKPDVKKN

[6] = target: T1, Keap1/Nrf2 (Homo sapiens); assay: Disruption of interaction between Nrf2/Keap1 (unknown origin) in mesangial cells assessed as reduction in high glucose-induced intracellular ROS production at 10 uM in presence of 10 uM ML385 by DCFH-DA assay; type: cell-based; details: Mesangial cell
[7] = target: T1, Keap1/Nrf2 (Homo sapiens); assay: Disruption of interaction between Nrf2/Keap1 (unknown origin) in mesangial cells assessed as reduction in high glucose-induced intracellular MDA level at 10 uM in presence of 10 uM ML385; type: cell-based; details: Mesangial cell
[8] = target: T1, Keap1/Nrf2 (Homo sapiens); assay: Disruption of interaction between Nrf2/Keap1 (unknown origin) in mesangial cells assessed as reduction in high glucose-induced fibronectin secretion at 10 uM in presence of 10 uM ML385 by ELISA; type: cell-based; details: Mesangial cell
[9] = target: T2, Nuclear factor erythroid 2-related factor 2 (Homo sapiens); assay: Activation of Nrf2 (unknown origin) in mesangial cell at 5 and 10 uM in presence of high glucose by Western blot based densitometric assay; type: tissue-based; details: dose microM 5-10
[10] = target: T1, Keap1/Nrf2 (Homo sapiens); assay: Disruption of interaction between Nrf2/Keap1 (unknown origin) in mesangial cells assessed as reduction in high glucose-induced intracellular MDA level at 5 to 10 uM; type: cell-based; details: Mesangial cell, dose microM 5-10
Mesangial cell [11] = assay: Inhibition of glucose-induced cell proliferation in Mesangial cell (unknown origin) at 5 and 10 uM by CCK8 assay; type: functional, tissue-based; details: dose microM 5-10
[12] = target: T1, Keap1/Nrf2 (Homo sapiens); assay: Disruption of interaction between Nrf2/Keap1 (unknown origin) in mesangial cells assessed as reduction in high glucose-induced intracellular ROS production at 5 to 10 uM by DCFH-DA assay; type: cell-based; details: Mesangial cell, dose microM 5-10
[13] = target: T2, Nuclear factor erythroid 2-related factor 2 (Homo sapiens); assay: Activation of Nrf2 (unknown origin) in mesangial cell assessed as strong red fluorescence at 5 and 10 uM in presence of high glucose by immunofluorescence staining based assay; type: tissue-based; details: dose microM 5-10
[14] = target: T1, Keap1/Nrf2 (Homo sapiens); assay: Disruption of interaction between Nrf2/Keap1 (unknown origin) in mesangial cells assessed as reduction in high glucose-induced collagen IV secretion at 5 to 10 uM by ELISA; type: cell-based; details: Mesangial cell, dose microM 5-10
[15] = target: T1, Keap1/Nrf2 (Homo sapiens); assay: Disruption of interaction between Nrf2/Keap1 (unknown origin) in mesangial cells assessed as reduction in high glucose-induced collagen IV secretion at 10 uM in presence of 10 uM ML385 by ELISA; type: cell-based; details: Mesangial cell
[16] = target: T1, Keap1/Nrf2 (Homo sapiens); assay: Disruption of interaction between Nrf2/Keap1 (unknown origin) in mesangial cells assessed as reduction in high glucose-induced fibronectin secretion at 5 to 10 uM by ELISA; type: cell-based; details: Mesangial cell, dose microM 5-10
[17] = target: T2, Nuclear factor erythroid 2-related factor 2 (Homo sapiens); assay: Activation of Nrf2 (unknown origin) in mesangial cell assessed as increase in translocation of Nrf2 into nuclei from cytosol at 5 to 10 uM in presence of high glucose by Western blot based densitometric assay; type: tissue-based; details: dose microM 5-10
[18] = target: T1, Keap1/Nrf2 (Homo sapiens); assay: Disruption of interaction between Nrf2/Keap1 (unknown origin) in mesangial cell assessed as increase of Nrf2 immunoprecipitate at 10 uM in presence of high glucose by Co-immunoprecipitation assay; type: tissue-based
[19] = target: T1, Keap1/Nrf2 (Homo sapiens); assay: Disruption of interaction between Nrf2/Keap1 (unknown origin) in mesangial cell assessed as decrease in Keap1 immunoprecipitate at 10 uM in presence of high glucose by Co-immunoprecipitation assay; type: tissue-based

| inhibition [1] | inhibition [3] | Activity [5] | inhibition [6] | inhibition [7] | inhibition [8] | Activity [9] | inhibition [10] | inhibition [12] | Activity [13] | inhibition [14] | inhibition [15] | inhibition [16] | Activity [17] | Activity [18] | Activity [19] | SMILES | inhibition (Mesangial cell [2]) | Activity [4] | inhibition (Mesangial cell [11]) |
| --- | --- | --- | --- | --- | --- | --- | --- | --- | --- | --- | --- | --- | --- | --- | --- | --- | --- | --- | --- |
| Active | Active | – | – | – | – | – | – | – | – | – | – | – | – | – | – | O=c1ccc2ccc(Oc3cc4ccc(=O)oc4cc3O)cc2o1 | Active | Non-Toxic | – |
| Active | Active | – | – | – | – | – | – | – | – | – | – | – | – | – | – | COc1cc2cc(Oc3ccc4ccc(=O)oc4c3)c(=O)oc2cc1O [DAPHNORETIN] | Active | Non-Toxic | – |
| – | – | Active | inactive | inactive | inactive | Active | Active | Active | Active | Active | inactive | Active | Active | Active | Active | COc1cc2cc(Oc3ccc4ccc(=O)oc4c3)c(=O)oc2cc1O[C@@H]1O[C@H](CO)[C@@H](O)[C@H](O)[C@H]1O [DAPHNORIN] | – | Non-Toxic | Active |
| Active | Active | – | – | – | – | – | – | – | – | – | – | – | – | – | – | O=c1ccc2ccc(Oc3cc4ccc(O)cc4oc3=O)cc2o1 [EDGEWORIN] | Active | Non-Toxic | – |
